According to US20100305204A1, “COMPOSITION USEFUL FOR THE PREVENTION OF ADVERSE EFFECT DUE TO THE USE OF PPAR-GAMMA AGONISTS” (SIGMA-TAU INDUSTRIE FARMACEUTICHE RIUNITE S.P.A., priority 2007, published 2010):
Values joined by “and” are separate entries in the source; they are usually repeats but may differ in a detail not shown here. Equal entries are not always repeated.

Experiments:
[1] = system: IGF1; test: Serum levels of IGF1 in rosiglitazone-treated patients affected by osteoporosis
[2] = Body weight (BW) of the patients
[3] = system: osteocalcine; test: Serum levels of osteocalcine in rosiglitazone-treated patients affected by osteoporosis
[4] = T1 versus T0, a month of wash-out, 6 patients
[5] = after 1-month rosiglitazone wash-out (T1), patients 1-6 individually and mean
[6] = after treatment with rosiglitazone 8 mg/day orally for 12 months (T0), patients 1-6 individually and mean

CN(CCOc1ccc(CC2SC(=O)NC2=O)cc1)c1ccccn1 (stereo not drawn) [rosiglitazone]
Change of serum IGF1 after wash-out [1, 4]: lightly incremented even if not significantly
Serum level of IGF1, T1 [1, 5]: 310000 pg/mL and 375000 pg/mL and 300000 pg/mL and 380000 pg/mL and 280000 pg/mL and 265000 pg/mL
Serum level of IGF1, T0 [1, 6]: 300 ng/ml and 235 ng/ml and 260 ng/ml (2×) and 330 ng/ml and 270 ng/ml
Change of body weight (BW) after wash-out [2, 4]: didn't demonstrate variations
BW Body weight, T1 [2, 5]: 98.9 and 102 and 109 and 94.6 and 96.8 and 97
BW Body weight, T0 [2, 6]: 99 and 102.5 and 108.9 and 94.5 and 97.3 and 97.2
Change of serum osteocalcine after wash-out [3, 4]: lightly incremented even if not significantly
Serum level of osteocalcine, T1 [3, 5]: 0.0028 pg/mL and 0.0029 pg/mL and 0.003 pg/mL and 0.0027 pg/mL and 0.0026 pg/mL
Serum level of osteocalcine, T0 [3, 6]: 0.0027 pg/mL and 0.003 pg/mL and 0.0031 pg/mL and 0.0023 pg/mL and 0.0022 pg/mL and 0.0026 pg/mL
Change of Total Body Water after wash-out [4]: didn't demonstrate variations
TBW Total Body Water, T1 [5]: 50 and 50.2 and 53.5 and 48 and 50.8 and 49.9
TBW Total Body Water, T0 [6]: 50.1 and 50.3 and 53.6 and 48 and 50.9 and 49.8
